Series [1] has as its system L-type Ca2+ channels in GH3 cells. In words: Inhibition of L-type calcium flux in GH3 cells (Indo-1 fluorescence). In kind it is cell-based, rat. Here is the method: Measurement of L-type Ca^2+ Channel Blocking Potencies of Compounds in GH3 Cells Using the Fluorescent Ca^2+ Indicator Indo-1
The GH3 rat pituitary cell line was obtained from the American Type Culture Collection (Rockville, Md.). Cells were grown in Ham's F-10 medium with 15% horse serum, 2.5% fetal bovine serum (FBS), and […] (Gibco, Gaithersburg, Md.). Confluent cells were detached using 0.5 mM EDTA and loaded with 5 μM Indo-acetoxymethyl ester (Molecular Probes, Eugene, Oreg.) in 1% bovine serum albumin (BSA) containing assay buffer (10 mM HEPES/Tris pH 7.4 in Hank's Balanced Salt Solution without bicarbonate or phenol red) for 60 minutes at 30° C. Loaded cells were washed twice, resuspended (approx. 10^7 cells/mL) in assay buffer containing 0.5% BSA, and kept on ice until use (<3 hrs). Different concentrations of the test compounds (60 μL in dimethyl sulfoxide) or controls were added to 5.94 mL of assay buffer containing approximately 3×10^6 loaded cells, and the samples were incubated for 10 minutes at 30° C. After incubation, samples were aliquoted into 3 cuvettes, and their fluorescence was measured with a Photon Technology International (PTI, South Brunswick, N.J.) Model RF-F3004 spectrofluorometer thermostatted at 30° C. Excitation was set at 350 nm and dual emissions were recorded at 400 and 490 nm. Basal emission signals were acquired for 20 seconds, followed by the depolarization of cells by the addition of 200 μL of a stimulation solution (1 M KCl, 68 mM CaCl2) to the stirred cuvette. Emission signals were acquired for an additional 50 seconds after depolarization. Ratio of emission signals (F400 nm/F490 nm), which is proportional to intracellular Ca^2+ concentration, was plotted against time, and the difference between the emission ratio 50 seconds after stimulation and its basal value (before stimulation) was determined. Values obtained in this way were considered as measures of depolarization-induced Ca-flux through L-type channels and plotted as a function of drug concentration. IC50 values of test compounds were calculated by fitting a four-parameter logistic function to the data using the least squares method.
A general note: A change in cytosolic calcium serves as a functional read-out for many receptors and channels.

For series [2], the target named is T1, N-type Ca2+ channels in IMR-32 cells (Homo sapiens, UniProt Q00975).
T1 construct: host or cells: IMR-32 cells, differentiated with dibutyryl cAMP and bromodeoxyuridine
T1 sequence (Q00975 whole entry): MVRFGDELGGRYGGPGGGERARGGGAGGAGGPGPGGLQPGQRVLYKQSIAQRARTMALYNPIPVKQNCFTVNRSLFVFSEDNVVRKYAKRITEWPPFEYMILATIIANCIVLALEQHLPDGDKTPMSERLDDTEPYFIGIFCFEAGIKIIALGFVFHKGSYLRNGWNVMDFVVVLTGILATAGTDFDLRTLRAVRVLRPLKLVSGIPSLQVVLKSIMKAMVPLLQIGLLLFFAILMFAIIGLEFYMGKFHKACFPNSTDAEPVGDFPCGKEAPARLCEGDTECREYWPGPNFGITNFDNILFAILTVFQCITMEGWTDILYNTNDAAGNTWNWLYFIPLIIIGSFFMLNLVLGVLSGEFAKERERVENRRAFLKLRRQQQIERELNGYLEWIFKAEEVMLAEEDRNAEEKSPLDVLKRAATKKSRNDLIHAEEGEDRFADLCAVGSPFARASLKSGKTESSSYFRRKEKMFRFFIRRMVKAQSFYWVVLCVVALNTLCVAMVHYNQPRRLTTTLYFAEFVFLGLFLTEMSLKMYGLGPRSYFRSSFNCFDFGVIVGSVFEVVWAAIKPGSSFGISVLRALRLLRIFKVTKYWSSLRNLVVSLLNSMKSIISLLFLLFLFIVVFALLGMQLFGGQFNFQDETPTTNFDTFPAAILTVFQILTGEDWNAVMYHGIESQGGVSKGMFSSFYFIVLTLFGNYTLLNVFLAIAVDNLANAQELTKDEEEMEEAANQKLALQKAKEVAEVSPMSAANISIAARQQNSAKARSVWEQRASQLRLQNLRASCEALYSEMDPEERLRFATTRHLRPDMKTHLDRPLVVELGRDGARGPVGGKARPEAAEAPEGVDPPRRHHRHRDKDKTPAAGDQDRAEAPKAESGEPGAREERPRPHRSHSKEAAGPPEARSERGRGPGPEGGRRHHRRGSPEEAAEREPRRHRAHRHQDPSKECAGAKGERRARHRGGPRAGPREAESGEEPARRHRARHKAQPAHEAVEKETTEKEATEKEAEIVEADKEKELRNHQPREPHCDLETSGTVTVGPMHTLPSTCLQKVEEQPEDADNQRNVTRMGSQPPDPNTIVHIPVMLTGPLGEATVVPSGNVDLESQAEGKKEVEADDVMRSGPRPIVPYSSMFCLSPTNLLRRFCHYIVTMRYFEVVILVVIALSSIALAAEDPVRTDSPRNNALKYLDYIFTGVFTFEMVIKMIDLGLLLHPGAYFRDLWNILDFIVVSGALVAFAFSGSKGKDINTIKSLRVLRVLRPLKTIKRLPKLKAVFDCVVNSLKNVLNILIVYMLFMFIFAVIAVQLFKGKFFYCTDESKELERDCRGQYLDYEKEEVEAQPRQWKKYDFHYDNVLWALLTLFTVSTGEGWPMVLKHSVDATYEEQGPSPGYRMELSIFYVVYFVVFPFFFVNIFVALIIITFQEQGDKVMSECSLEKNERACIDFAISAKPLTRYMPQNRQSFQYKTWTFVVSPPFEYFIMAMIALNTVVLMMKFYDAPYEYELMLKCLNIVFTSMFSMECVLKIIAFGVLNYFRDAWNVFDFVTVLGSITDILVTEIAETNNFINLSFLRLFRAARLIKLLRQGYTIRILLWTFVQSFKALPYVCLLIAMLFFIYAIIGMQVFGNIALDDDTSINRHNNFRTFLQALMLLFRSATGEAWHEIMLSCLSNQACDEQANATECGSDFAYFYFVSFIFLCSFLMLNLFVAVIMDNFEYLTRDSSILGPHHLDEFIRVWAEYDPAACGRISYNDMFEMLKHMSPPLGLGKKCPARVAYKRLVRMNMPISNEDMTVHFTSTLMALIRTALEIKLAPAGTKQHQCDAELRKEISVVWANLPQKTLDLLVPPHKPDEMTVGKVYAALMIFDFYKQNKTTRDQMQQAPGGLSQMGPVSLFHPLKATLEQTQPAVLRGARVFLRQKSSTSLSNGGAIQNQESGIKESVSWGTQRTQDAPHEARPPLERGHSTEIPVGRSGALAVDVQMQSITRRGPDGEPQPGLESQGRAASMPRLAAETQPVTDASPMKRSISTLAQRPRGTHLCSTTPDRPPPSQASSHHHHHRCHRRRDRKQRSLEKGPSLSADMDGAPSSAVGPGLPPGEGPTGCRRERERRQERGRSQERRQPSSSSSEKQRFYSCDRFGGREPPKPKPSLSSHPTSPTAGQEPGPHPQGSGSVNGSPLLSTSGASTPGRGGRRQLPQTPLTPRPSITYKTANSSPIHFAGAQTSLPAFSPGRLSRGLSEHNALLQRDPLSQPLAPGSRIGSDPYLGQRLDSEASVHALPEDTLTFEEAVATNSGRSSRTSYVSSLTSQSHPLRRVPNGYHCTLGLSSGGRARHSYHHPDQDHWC
T1 sequence (P54289 25-956 partner limits assumed): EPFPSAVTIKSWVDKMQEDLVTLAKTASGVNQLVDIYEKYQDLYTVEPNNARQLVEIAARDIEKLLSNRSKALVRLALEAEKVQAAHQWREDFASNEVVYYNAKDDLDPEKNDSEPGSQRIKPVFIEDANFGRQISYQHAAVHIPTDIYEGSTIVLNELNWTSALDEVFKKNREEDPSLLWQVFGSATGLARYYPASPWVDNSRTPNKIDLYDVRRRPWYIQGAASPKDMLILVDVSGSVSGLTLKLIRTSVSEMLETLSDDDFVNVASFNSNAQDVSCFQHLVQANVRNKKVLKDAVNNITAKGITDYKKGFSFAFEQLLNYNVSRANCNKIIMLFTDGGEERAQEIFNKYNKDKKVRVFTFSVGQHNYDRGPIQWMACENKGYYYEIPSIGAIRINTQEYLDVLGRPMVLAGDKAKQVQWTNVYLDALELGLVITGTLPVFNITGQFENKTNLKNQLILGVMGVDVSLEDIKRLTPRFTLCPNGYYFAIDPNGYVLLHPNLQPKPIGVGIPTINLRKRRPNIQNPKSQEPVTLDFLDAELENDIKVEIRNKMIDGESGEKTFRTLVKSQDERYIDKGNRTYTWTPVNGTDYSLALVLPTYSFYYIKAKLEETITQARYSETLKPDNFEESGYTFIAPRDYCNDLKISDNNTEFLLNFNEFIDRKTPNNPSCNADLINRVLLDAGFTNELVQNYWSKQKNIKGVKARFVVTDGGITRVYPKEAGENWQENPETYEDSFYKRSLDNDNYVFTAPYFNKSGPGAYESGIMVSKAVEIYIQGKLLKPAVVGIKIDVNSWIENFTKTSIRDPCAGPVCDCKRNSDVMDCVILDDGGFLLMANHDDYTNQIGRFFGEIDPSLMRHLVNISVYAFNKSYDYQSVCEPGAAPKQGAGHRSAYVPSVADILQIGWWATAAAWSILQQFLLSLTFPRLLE
T1 sequence (P54289 957-1103 partner limits assumed): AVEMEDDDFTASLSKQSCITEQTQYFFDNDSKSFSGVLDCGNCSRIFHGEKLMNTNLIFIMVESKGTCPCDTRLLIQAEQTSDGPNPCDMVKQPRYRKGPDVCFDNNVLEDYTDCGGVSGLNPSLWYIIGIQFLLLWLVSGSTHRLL
T1 sequence (P54284 whole entry partner): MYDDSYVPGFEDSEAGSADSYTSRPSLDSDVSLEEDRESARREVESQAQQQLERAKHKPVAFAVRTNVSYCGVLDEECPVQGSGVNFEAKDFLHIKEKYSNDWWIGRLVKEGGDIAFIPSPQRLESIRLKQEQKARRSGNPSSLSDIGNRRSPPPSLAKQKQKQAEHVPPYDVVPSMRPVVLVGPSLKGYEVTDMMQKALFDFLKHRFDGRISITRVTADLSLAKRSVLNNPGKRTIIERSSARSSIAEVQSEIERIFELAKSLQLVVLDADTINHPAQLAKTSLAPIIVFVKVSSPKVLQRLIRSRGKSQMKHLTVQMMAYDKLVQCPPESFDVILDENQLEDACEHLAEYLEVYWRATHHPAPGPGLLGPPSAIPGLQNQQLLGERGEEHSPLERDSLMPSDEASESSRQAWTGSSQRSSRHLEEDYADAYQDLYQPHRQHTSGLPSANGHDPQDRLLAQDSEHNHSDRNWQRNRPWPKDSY
In words: Inhibition of N-type calcium flux in IMR-32 cells (Indo-1 fluorescence, nitrendipine present). In kind it is cell-based. The note with it: for inhibition at 1 µM / inhibition at 10 µM: IMR-32; for IC50: IMR-32 cells, 5 μM nitrendipine, K+ depolarization. The gist of the method:
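With L-type flux blocked by 5 μM nitrendipine, N-type Ca2+ entry was read as the Indo-1 emission ratio (400/490 nm, excitation 350 nm) at 30° C after KCl depolarization.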

For series [3], the target named is T2, N-type Ca2+ channels in superior cervical ganglion (SCG) neurons (Rattus norvegicus, UniProt Q02294).
T2 construct: from tissue
In words: Whole-cell voltage clamp, N-type Ca2+ current in SCG neurons. The class given is cell-based. The gist of the method:
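Whole-cell voltage clamp of acutely trypsin-dissociated rat SCG neurons, with TEA/choline external solution (2 mM Ca2+) and Cs-methanesulfonate pipette solution. Currents evoked by 150 ms steps to +20 mV from −65 to −55 mV holding, every 40 s; compounds applied locally, effect as % inhibition of control amplitude.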

Series [4] relates to K+ channels in superior cervical ganglion (SCG) neurons. Kind of series: Whole-cell voltage clamp, K+ current in SCG neurons. The class given is cell-based, rat. The settings on record: 10 μM. The gist of the method: (§1)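 Percent inhibition of control amplitude at steady-state block is the read-out: peak inward Na+ current at 0 mV, sustained K+ current at +50 mV, 35 msec steps every 10 sec from −65 to −55 mV. Recordings used whole-cell clamp of trypsin-dissociated SCG neurons, pH 7.4 external and pipette solutions, compounds applied by local perfusion.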

In series [5] the test system is Na+ channels in superior cervical ganglion (SCG) neurons. In words: Whole-cell voltage clamp, Na+ current in SCG neurons. In kind it is cell-based, rat. The settings on record: 10 μM. The gist of the method:
as §1

The structures appear in SMILES notation.

Usually IC50 stands for the point on the concentration scale where inhibition reaches its midpoint. As usually defined, the inhibition is how much of the control response was suppressed. With `CC(C)(C)OC(=O)[C@@H](Cc1ccc(OCc2ccccc2)cc1)NC(=O)[C@H](Cc1ccccc1)NC(=O)N1CCCCCC1` [Example 18, 2(R)-{2(S)-[(Azepane-1-carbonyl)-amino]-3-phenyl-propionylamino}-3-(4-benzyloxy-phenyl)-propionic acid tert-butyl ester], the IC50 in series [1] was found to be 3.5 µM. Besides, in series [2], the inhibition at 1 µM was 50%, the inhibition at 10 µM worked out at 97% and the IC50 was found to be 0.93 µM.
The term melting point denotes the temperature, or range, at which the solid turns liquid. Consider `Cc1ccc(COc2ccc(C[C@H](NC(=O)[C@H](Cc3ccccc3)NC(=O)N3CCCCCC3)C(=O)OC(C)(C)C)cc2)cc1` [Example 19, [S-(R*,R*)]-2-{2-[(Azepane-1-carbonyl)-amino]-3-phenyl-propionylamino}-3-[4-(4-methyl-benzyloxy)-phenyl]-propionic acid tert-butyl ester], for which the melting point lay within 87 to 90 °C. Besides, the IC50 in series [1] stood at 4.3 µM. In addition, in series [2], the inhibition at 1 µM amounted to 68%, the inhibition at 10 µM is 91% and the IC50 stood at 0.5 µM.
Turning to `CC(C)(C)OC(=O)[C@H](Cc1ccc(OCc2ccccc2)cc1)NC(=O)[C@H](Cc1c[nH]c2ccccc12)NC(=O)N1CCCCCC1` [Example 20, [S-(R*,R*)]-2-[2-[(Azepane-1-carbonyl)-amino]-3-(1H-indol-3-yl)-propionylamino]-3-(4-benzyloxy-phenyl)-propionic acid tert-butyl ester], the IC50 in series [1] came to 4.6 µM. Moreover, in series [2], the inhibition at 1 µM stood at 52%, the inhibition at 10 µM stood at 90% and the IC50 turned out to be 0.91 µM.
Turning to `CC(C)C[C@H](NC(=O)N1CCCCCC1)C(=O)N[C@@H](Cc1ccc(OCc2ccccc2)cc1)C(=O)NC(C)(C)C` [Example 23, [S-(R*,R*)]-Azepane-1-carboxylic acid {1-[2-(4-benzyloxy-phenyl)-1-tert-butylcarbamoyl-ethylcarbamoyl]-3-methyl-butyl}-amide], the IC50 worked out at 18 µM in series [1], 0.58 µM in series [2] and 3.24 µM in series [3] (read-out: Inhibition of N-type Ca2+ Current IC50). In addition, in series [2], the inhibition at 1 µM is 55%. For the same compound, the inhibition at 10 µM in series [2] amounted to 95%; in series [3] (10 μM), 78%. For the same compound, the “Inhibition of K+ Current, % Inhibition at 10 μM” value in series [4] came to 61%. Besides, in series [5], the “Inhibition of Na+ Current, % Inhibition at 10 μM” value is listed as 30%.

The values are drawn from US6423689B1, “Peptidyl calcium channel blockers” (Warner-Lambert Company, priority 1997, dated 2002).
